Data set [1] in a line: Solubility screening tests in 8 solvent systems. Type of data set: physicochemical. The protocol: Solubility screening tests were performed in 8 solvent systems: (1) Transcutol: Ethanol: Isopropyl myristate (IPM) 2:3:5 (v:v); (2) Transcutol: Ethanol 3:7 (v:v); (3) Ethanol: Propylene Glycol 1:1 (v:v); (4) Ethanol:H2O 7:3 (v:v); (5) IPM; (6) Ethanol:Tween 80: Cetyl Alcohol 90:5:5 (w:w); (7) CCT: Tween 80: Cetyl Alcohol 90:5:5 (w:w); and (8) CCT: Isopropanol 1:1 (v: v). […] One objective was to identify solvent systems for solution formulation at targeted API concentration of 1% by weight. Another objective was to identify solvents that are potentially good penetration enhancers and yet clinically viable. Since cetyl alcohol is solid, the solvent systems with them were prepared in weight ratios.

For data set [2], the system named is MDA-kb2 breast cancer cell. The data set can be described thus: MDA-kb2 cell viability in Example 13. Type of data set: cell-based.
Data set [3] has as its system MDA-kb2 mammary gland breast cancer cell line. The following applies: human, 24 h.
Description: For the MDA-kb2 assay, MDA-kb2 mammary gland breast cancer cell line was maintained in L-15 media (Gibco) supplemented with 10% FBS, 100 U/mL penicillin, 100 μg/mL streptomycin, and 0.25 μg/mL amphotericin B at 37° C., without CO2. For experiments, cells were plated at 1.0×10^4 cells (50% confluence) per well in 100 μL of medium in 96-well plates. When cells were attached (after 6 hours), medium was removed and replaced with dosing medium containing 10% charcoal stripped FBS.
A 5α-Androstan-17β-ol-3-one (DHT) stock solution was prepared at 1,000× in ethanol. Each ARE tested was prepared in DMSO. Dosing medium was prepared at the time of treatment by serial diluting stock solution into medium. Ethanol concentrations in media never exceeded 0.1%. […] Negative control wells contained 100 μL medium/well with 1 μL of ethanol/mL of medium and an appropriate amount of DMSO. Each plate also contained 1.0 nM DHT with an ARE or without an ARE as a positive control. Cells were incubated 24 hours at 37° C. without CO2.
(§1) To assess for cell viability, cells were first visually examined under a phase-contrast microscope to record cell confluence, morphological changes, and presence of drug crystallization as well as to observe signs of cytotoxity such as, e.g., detachment, vacuolization, membrane degradation, or lack of phase brightness. After microscopic inspection, a Trypan Blue exclusion assay was performed to assess cell viability and cell number for each well. Each well was washed with 0.5 mL volume of PBS. 30 µL of Trypan Blue was added to each well for 5-10 minutes. Total cell number and total viable cell number will be counted from 1 number of fields per well, in triplicate.
Data set [4] is described as follows: in vitro. The following applies: human.
Data set [5] concerns normal Human Adult Primary Epidermal Keratinocyte cell line. The following applies: 24 h.
Description: For the Keratinocyte assay, normal Human Adult Primary Epidermal Keratinocyte cell line (ATCC PCS-200-011) was maintained in EPIUFE® Medium, with 60 μM calcium (Thermo MEPISOOCA) supplemented with Human Keratinocyte Growth Supplement, 100 U/mL penicillin, and 100 μg/mL streptomycin at 37° C. with 5% C02. For experiments, cells were seeded at 70% confluence per well in 100 μL of medium in 96-well plates. […] After 16 hours, medium was removed and replaced with dosing medium.
A 5α-Androstan-17β-ol-3-one (DHT) stock solution was prepared at 1,000× in ethanol. […] Dosing medium was prepared at the time of treatment by serial diluting stock solution into medium. Ethanol concentrations in media never exceeded 0.1%. […] Negative control wells contained 100 μL medium/well with 1 μL of ethanol/mL of medium and an appropriate amount of DMSO. Each plate also contained 1.0 nM DHT with an ARE or without an ARE as a positive control. Cells were incubated 24 hours at 37° C. without CO2.
as §1
A short description of data set [6]: Human Skin Penetration Assays (Franz-cell, HTS station). Type of data set: in vitro ADME. The following applies: 8 hours of exposure. The protocol:
To examine the penetration ability of SPG-003 formulation, two different assays were conducted. The SPG-003 formulation was prepared by adding SPG-003 (final concentration 1.0% by weight) to a mixture comprising 30% denatured alcohol. 49% IPM, 20% Transcutol and sonicaing this mixture until the compound was dissolved.
Human cadaver skin tissue was purchased from a tissue bank in the U.S. Two lots of the dermatomed skin tissue were used. Donor demographics: tissue 08033 (average thickness: 397 μm): […], […], […], and anatomical site=abdomen; tissue 08696 (average thickness; 1,040 μm): […], […], […], and anatomical site=abdomen. The thickness was measured using a digital snap gage. Duplicate for each donor (N=2). The tissue was received in dry ice packaging. It was stored at −20° C. until use.
After passing initial visual inspection, barrier integrity of the skin tissue was evaluated using transepidermal electrical resistance measurement (TEER measurement). […] Prior to the skin absorption and penetration study, electrical resistance value for each lot of human skin tissue was evaluated. […] Transepidermal electrical resistance value (TEER measurement, Z value) was measured. […] It was determined that the threshold TEER value was 6.0 KOhms for donor 08033 and 10 KOhms for donor 08696. […]
The data collection time point was 8 hours. […] The extracts were collected and ready for analysis. […]

Data set [7] concerns human keratinocytes. The data set can be described thus: Keratinocyte cell viability / cytotoxicity in Example 12. Type of data set: cell-based. The following applies: extended treatment.

Like-named read-outs stand apart in the source and are kept apart here.

The term IC50 denotes the concentration that gives 50% inhibition. The low end stands for inhibition by little substance, the high end for a need for much substance. `CC12CCC(=O)C=C1C[C@@H](SC(=O)CC13CC4CC(CC(C4)C1)C3)C1C2CCC2(C)C1CC[C@@]21CCC(=O)O1` (stereo partly shown) [SPG-003]: the solubility entry was “good solubility” in data set [1] (solvent system (1) Transcutol: Ethanol: Isopropyl myristate (IPM) 2:3:5 (v:v), target 1% by weight); “good solubility” in data set [1] (solvent system (2) Transcutol: Ethanol 3:7 (v:v), target 1% by weight); “not soluble” in data set [1] (solvent system (3) Ethanol: Propylene Glycol 1:1 (v:v), after extensive sonication); “not soluble” in data set [1] (solvent system (4) Ethanol:H2O 7:3 (v:v), after extensive sonication); “not soluble” in data set [1] (solvent system (5) IPM, after extensive sonication); “good solubility” in data set [1] (solvent system (6) Ethanol:Tween 80: Cetyl Alcohol 90:5:5 (w:w)). The solubility result in data set [1] (solvent system (7) CCT: Tween 80: Cetyl Alcohol 90:5:5 (w:w), after extensive sonication) is “not soluble”; in data set [1] (solvent system (8) CCT: Isopropanol 1:1 (v: v)), “good solubility”. Further, the Cell Viability is listed as 80% in data set [2] (MDA-kb2, 6 μM); 50% in data set [2] (MDA-kb2, 10 μM); 98% in data set [3] (0.1 μM); 99% in data set [3] (1 μM); 98% in data set [3] (3 μM); 98% in data set [3] (10 μM). Further, the “Cell Viability” value in data set [5] (0.1 μM) came to 93%; in data set [5] (1 μM) it was 93%; in data set [5] (3 μM), 94%; in data set [5] (10 μM), 93%. Moreover, the IC50 at 72 h in data set [4] was approximately 50 µM. Also, in data set [6], the “skin penetration (in words)” value is on record as “limited amount”. Moreover, the “skin retention in epidermis and dermis (in words)” value in data set [6] is listed as “good amount”. In addition, the “cell cytotoxicity (in words)” value in data set [7] was “minimal”.
